Results from US7576127B2, “Aromatic prodrugs of propofol, compositions and uses thereof” (XenoPort, Inc., priority 2003, dated 2009).

Key:
[1] = oral dosing, rats; Raoof et al., Pharm. Res. 1996; cited from earlier work
[2] = molecular target: T1, human SMVT (SLC5A6) (Homo sapiens, UniProt Q9Y289); assay: Electrogenic transport in SMVT-expressing Xenopus oocytes (two-electrode voltage-clamp); type: cell-based; conditions: tested at 0.5 mM on oocytes expressing SMVT; membrane potential -60 mV
T1 construct: The complete open reading frame of human SMVT (SLC5A6) was amplified; expressed in transfected cells; host or cells: Xenopus oocytes injected with cRNA transcribed in vitro from the pMO plasmid
T1 sequence (Q9Y289 1-635): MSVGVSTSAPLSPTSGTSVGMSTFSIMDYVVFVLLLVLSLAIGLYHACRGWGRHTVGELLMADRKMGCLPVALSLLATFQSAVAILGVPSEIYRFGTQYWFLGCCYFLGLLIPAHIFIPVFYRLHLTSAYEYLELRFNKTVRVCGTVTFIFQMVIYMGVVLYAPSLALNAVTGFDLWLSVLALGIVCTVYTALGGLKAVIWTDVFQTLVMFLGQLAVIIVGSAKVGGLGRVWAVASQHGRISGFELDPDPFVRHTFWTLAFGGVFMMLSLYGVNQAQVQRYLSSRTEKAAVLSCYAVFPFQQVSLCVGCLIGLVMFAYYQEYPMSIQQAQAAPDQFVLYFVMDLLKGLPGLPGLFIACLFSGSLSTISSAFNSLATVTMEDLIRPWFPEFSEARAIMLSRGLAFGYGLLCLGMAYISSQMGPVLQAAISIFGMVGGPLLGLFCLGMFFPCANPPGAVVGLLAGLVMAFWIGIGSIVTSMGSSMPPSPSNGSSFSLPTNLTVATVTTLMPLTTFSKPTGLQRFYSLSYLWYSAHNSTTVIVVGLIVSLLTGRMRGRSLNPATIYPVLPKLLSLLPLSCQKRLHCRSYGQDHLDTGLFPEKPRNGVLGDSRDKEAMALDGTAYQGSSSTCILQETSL
From the text: Transporter Cloning: The complete open reading frame of human SMVT (SLC5A6) was amplified from human cDNA prepared from intestinal mRNA. Gene-specific oligonucleotide primers were designed against Genbank sequences (NM-021095). Amplified PCR products were cloned into a modified version of the mammalian expression vector pcDNA3 (termed pMO) that was engineered to contain the 5′ and 3′ untranslated regions from the Xenopus beta-globin gene. All clones were completely sequenced and tested for function by transient transfection in HEK293 cells. Radiolabeled ^3H biotin was used to assess SMVT function (see method below).
Xenopus Oocyte Expression and Electrophysiology: cRNA for oocyte expression was prepared by linearization of plasmid cDNA and in vitro transcription using T7 polymerase (Epicentre Ampliscribe kit). Xenopus oocytes were prepared and maintained as previously described (Collins et al., Proc. Natl. Acad. Sci. 1997, 13:5456-5460) and injected with 10-30 ng RNA. Transport currents were measured 2-6 days later using two-electrode voltage-clamp (Axon Instruments). […] Half-maximal concentrations were calculated using non-linear regression curve fitting software (Prism) with the Hill co-efficient fixed to 1. […]

Compound	fraction of administered drug undergoing first pass metabolism [1]	SMVT-specific currents above background, normalized to maximal biotin elicited current [2]
CC(C)c1cccc(C(C)C)c1O [Propofol, 2,6-diisopropylphenol]	approximately 90%	
CC(C)c1cccc(C(C)C)c1OC(=O)c1ccccc1C(=O)NCCC(=O)O [Compound 101, 3-{[2-[2,6-Bis(isopropyl)phenoxycarbonyl]-benzoyl]amino}-propanoic acid]		at least 10 % of Imax for biotin
